According to patent US10800778B2 (Entasis Therapeutics Limited, priority 2016, dated 2020):
Structures can show the parent of a compound that is named as a salt.

Legend:
[1] = Stability in pH 7.4 buffer (no enzyme); format: physicochemical; conditions: read-out: T1/2 pH 7.4 Buffer
Experimental: (§1) The human intestinal S9 with the absence of PMSF, human liver S9, rat intestinal S9, and rat liver S9 preparations were obtained from Xenotech (Lenexa, Kans.). The 500-μL incubation solution contained 0.8 mg/mL of enzyme (or no enzyme for buffer stability), 10 μM of test compounds in 100 mM of HEPES buffer, pH 7.4. The hydrolysis reactions were conducted in a 1-mL glass insert (Analytical Sales, Pompton Plains, N.J.) in a shake water bath at 37° C. At 0, 2, 5, 10, 15, 30 and 60 min, the reaction was terminated by pipetting 50 μL incubate to a 96 DeepWell plate (Thermo Fisher Scientific, Rochester, N.Y.) containing 100 μL of acetonitrile with 250 ng/mL of Carbutamide (Sigma-Aldrich, St. Louis, Miss.) as the internal standard. The crashed solutions were then vortexed well followed by centrifuge at 4000 rpm for 15 min at 4° C. The extract was transferred to a new 96 DeepWell plate for LC-MS/MS analysis.
(§2) LC-MS/MS analysis was done using an AB Sciex QTrap 6500 mass spectrometer under positive ionization mode, coupled to a Schimadzu Nexera LC system.
(§3) A Waters Atlantis T3 (3 μm, 3.0×50 mm) column was used for separation. The mobile phase consisted 0.1% formic acid in water (A) and 0.1% formic acid in acetonitrile (B) with a flow rate set at 1.2 mL/min. For the prodrug analysis, the Multiple Reaction Monitoring (MRM) specific for each compound was set up so that both prodrug and its hydrolyzed active can be monitored simultaneously.
(§4) Half-lives listed are based on disappearance of starting ester.

[2] = Stability/conversion of esters in rat intestinal S9; format: in vitro ADME
Experimental: as §1, §2, §3, §4

[3] = Stability/conversion of esters in rat liver S9; format: in vitro ADME
Experimental: as §1, §2, §3, §4

[4] = Stability/conversion of esters in human intestinal S9; format: in vitro ADME
Experimental: as §1, §2, §3, §4

[5] = Stability/conversion of esters in human liver S9; format: in vitro ADME
Experimental: as §1, §2, §3, §4

[6] = intestinal S9, pH 7.4, read-out: T1/2 Rat Intestinal S9
[7] = liver S9, pH 7.4, read-out: T1/2 Rat Liver S9
[8] = intestinal S9 (without PMSF), pH 7.4, read-out: T1/2 Human Intestinal S9
[9] = liver S9, pH 7.4, read-out: T1/2 Human Liver S9
[10] = s9, pH 7.4, read-out: T1/2 Rat Intestinal S9
[11] = s9, pH 7.4, read-out: T1/2 Rat Liver S9
[12] = s9, pH 7.4, read-out: T1/2 Human Intestinal S9
[13] = s9, pH 7.4, read-out: T1/2 Human Liver S9

half-life at 10 μM ([1]; HEPES buffer without enzyme) | half-life at 10 μM [2, 6] | half-life at 10 μM [3, 7] | half-life at 10 μM [4, 8] | half-life at 10 μM [5, 9] | Compound | half-life at 10 μM ([1]; buffer) | half-life at 10 μM [2, 10] | half-life at 10 μM [3, 11] | half-life at 10 μM [4, 12] | half-life at 10 μM [5, 13]
26 min | 21 min | 3.8 min | 20 min | 3.5 min | CCOC(=O)[C@H](F)ON1C(=O)N2C[C@H]1C=C(C)[C@H]2C(=O)NCO [Example 85, ethyl (2S)-2-fluoro-2-[[(2S,5R)-2-(hydroxymethylcarbamoyl)-3-methyl-7-oxo-1,6-diazabicyclo[3.2.1]oct-3-en-6-yl]oxy]acetate] |  |  |  |  | 
29 min | 21 min | 10 min | 22 min | 9.9 min | CCOC(=O)[C@H](F)ON1C(=O)N2C[C@H]1C=C(C)[C@H]2C(=O)NOC[C@@H]1CCCN1 [Example 60, ethyl (2S)-2-fluoro-2-(((2S,5R)-3-methyl-7-oxo-2-((((S)-pyrrolidin-2-yl)methoxy)carbamoyl)-1,6-diazabicyclo[3.2.1]oct-3-en-6-yl)oxy)acetate TFA salt] |  |  |  |  | 
 |  |  |  |  | CCOC(=O)[C@H](F)ON1C(=O)N2C[C@H]1C(C)=C[C@H]2C(N)=O [Example 32, (2S)-ethyl 2-(((2S,5R)-2-carbamoyl-4-methyl-7-oxo-1,6-diazabicyclo[3.2.1]oct-3-en-6-yl)oxy)-2-fluoroacetate] | 22 min | 18 min | 2.4 min | 6.9 min | 2.4 min
2.9 min | 3.3 min | 0.7 min | 1 min | 0.7 min | CCOC(=O)C(F)(F)ON1C(=O)N2C[C@H]1C(C)=C[C@H]2C(N)=O [Example 90, ethyl 2-(((2S,5R)-2-carbamoyl-4-methyl-7-oxo-1,6-diazabicyclo[3.2.1]oct-3-en-6-yl)oxy)-2,2-difluoroacetate] |  |  |  |  | 
1.7 min | 1.3 min | < 1 min | < 1 min | < 1 min | CC1=C[C@@H]2CN(C(=O)N2O[C@H](F)C(=O)Oc2ccc3c(c2)CCC3)[C@@H]1C(N)=O [Example 65, indan-5-yl (2R)-2-[[(2S,5R)-2-carbamoyl-3-methyl-7-oxo-1,6-diazabicyclo[3.2.1]oct-3-en-6-yl]oxy]-2-fluoro-acetate] |  |  |  |  | 
 |  |  |  |  | CCOC(=O)[C@H](F)ON1C(=O)N2C[C@H]1C=C(C)[C@H]2C(N)=O [Example 2, (S)-ethyl 2-((2S,5R)-2-carbamoyl-3-methyl-7-oxo-1,6-diazabicyclo[3.2.1]oct-3-en-6-yloxy)-2-fluoroacetate] | 29 min | 24 min | 1.4 min | 21 min | 1.9 min
68 min | 26 min | 1.8 min | 32 min | 6.9 min | CC1=C[C@@H]2CN(C(=O)N2O[C@H](F)C(=O)OCC(C)C)[C@@H]1C(N)=O [Example 49, isobutyl (2R)-2-[[(2S,5R)-2-carbamoyl-3-methyl-7-oxo-1,6-diazabicyclo[3.2.1]oct-3-en-6-yl]oxy]-2-fluoro-acetate] |  |  |  |  | 
98 min | > 100 min | 1.5 min | > 100 min | 12.4 min | CC1=C[C@@H]2CN(C(=O)N2O[C@H](F)C(=O)OC(C(C)C)C(C)C)[C@@H]1C(N)=O [Example 15, 2,4-dimethylpentan-3-yl (2R)-{[(2S,5R)-2-carbamoyl-3-methyl-7-oxo-1,6-diazabicyclo[3.2.1]oct-3-en-6-yl]oxy}(fluoro)ethanoate] |  |  |  |  | 
1.2 min | 1.1 min | < 1 min | < 1 min | < 1 min | CC1=C[C@@H]2CN(C(=O)N2O[C@H](F)C(=O)OCOC(=O)C(C)(C)C)[C@@H]1C(N)=O [Example 64, [(2R)-2-[[(2S,5R)-2-carbamoyl-3-methyl-7-oxo-1,6-diazabicyclo[3.2.1]oct-3-en-6-yl]oxy]-2-fluoro-acetyl]oxymethyl 2,2-dimethylpropanoate] |  |  |  |  | 
